Publication PMC8253220, “Molecular design, synthesis and in vitro biological evaluation of thienopyrimidine–hydroxamic acids as chimeric kinase HDAC inhibitors: a challenging approach to combat cancer” (Journal of Enzyme Inhibition and Medicinal Chemistry, 2021)
Several values for one entry are separate records, joined by “and”; a condition that tells them apart may be missing. Equal values may be shown once.

Key:
Assay in all cases: NCI one-dose screen
Assay type in all cases: cell-based, human
786-0 = details: Renal 786-0, 10 µM single dose
Summary of the method: (§1)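 One concentration (10 μM) applied to each line of the full NCI-60 panel; percent growth compared against untreated cells.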

ACHN = details: Renal ACHN, 10 µM single dose
Summary of the method: as §1

BT-549 = details: Breast BT-549, 10 µM single dose
Summary of the method: as §1

CAKI-1 = details: Renal CAKI-1, 10 µM single dose
Summary of the method: as §1

COLO 205 = details: Colon COLO 205, 10 µM single dose
Summary of the method: as §1

HCC-2998 = details: Colon HCC-2998, 10 µM single dose
Summary of the method: as §1

HCT-116 = details: Colon HCT-116, 10 µM single dose
Summary of the method: as §1

HL-60(TB) = details: Leukemia HL-60(TB), 10 µM single dose
Summary of the method: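 At 10 μM, a single concentration, compounds were evaluated for antiproliferative effect in the NCI 60-line screen, with growth expressed relative to untreated control cells.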

HOP-92 = details: NSCLC HOP-92, 10 µM single dose
Summary of the method: as §1

K-562 = details: Leukemia K-562, 10 µM single dose
Summary of the method: as §1

KM12 = details: Colon KM12, 10 µM single dose
Summary of the method: (§2)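 NCI-60 one-dose format: 10 μM compound; readout % growth inhibition relative to untreated cells.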

LOX IMVI = details: Melanoma LOX IMVI, 10 µM single dose
Summary of the method: as §1

MALME-3M = details: Melanoma MALME-3M, 10 µM single dose
Summary of the method: as §1

MCF7 = details: Breast MCF7, 10 µM single dose
Summary of the method: as §2

MDA-MB-231/ATCC = details: Breast MDA-MB-231/ATCC, 10 µM single dose
Summary of the method: as §1

MDA-MB-435 = details: Melanoma MDA-MB-435, 10 µM single dose
Summary of the method: as §1

NCI-H23 = details: NSCLC NCI-H23, 10 µM single dose
Summary of the method: as §2

NCI-H322M = details: NSCLC NCI-H322M, 10 µM single dose
Summary of the method: as §1

NCI-H460 = details: NSCLC NCI-H460, 10 µM single dose
Summary of the method: as §1

NCI-H522 = details: NSCLC NCI-H522, 10 µM single dose
Summary of the method: (§3)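 Compounds were tested at a single dose of 10 μM across the full NCI-60 cell line panel. Growth was expressed as percent growth relative to untreated control cells, reported as percent inhibition.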

OVCAR-3 = details: Ovarian OVCAR-3, 10 µM single dose
Summary of the method: as §1

OVCAR-5 = details: Ovarian OVCAR-5, 10 µM single dose
Summary of the method: as §1

OVCAR-8 = details: Ovarian OVCAR-8, 10 µM single dose
Summary of the method: as §1

PC-3 = details: Prostate PC-3, 10 µM single dose
Summary of the method: (§4)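 Single 10 μM dose, NCI-60 panel; read-out = % growth vs untreated controls → % inhibition.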

RPMI-8226 = details: Leukemia RPMI-8226, 10 µM single dose
Summary of the method: as §1

SF-268 = details: CNS SF-268, 10 µM single dose
Summary of the method: as §2

SF-295 = details: CNS SF-295, 10 µM single dose
Summary of the method: as §1

SF-539 = details: for Growth Percent: CNS SF-539, 10 µM single dose
Summary of the method: as §2

SK-MEL-28 = details: Melanoma SK-MEL-28, 10 µM single dose
Summary of the method: as §4

SK-OV-3 = details: Ovarian SK-OV-3, 10 µM single dose
Summary of the method: as §1

SN12C = details: Renal SN12C, 10 µM single dose
Summary of the method: as §1

SNB-19 = details: CNS SNB-19, 10 µM single dose
Summary of the method: as §4

SR = details: Leukemia SR, 10 µM single dose
Summary of the method: as §1

T-47D = details: Breast T-47D, 10 µM single dose
Summary of the method: as §1

TK-10 = details: Renal TK-10, 10 µM single dose
Summary of the method: as §1

U251 = details: CNS U251, 10 µM single dose
Summary of the method: as §3

UACC-257 = details: Melanoma UACC-257, 10 µM single dose
Summary of the method: as §4

Row | Structure (SMILES) | Growth Percent (786-0) | Growth Percent (ACHN) | Growth Percent (BT-549) | Growth Percent (CAKI-1) | Growth Percent (COLO 205) | Growth Percent (HCC-2998) | Growth Percent (HCT-116) | Growth Percent (HL-60(TB)) | Growth Percent (HOP-92) | Growth Percent (K-562) | Growth Percent (KM12) | Growth Percent (LOX IMVI) | Growth Percent (MALME-3M) | Growth Percent (MCF7) | Growth Percent (MDA-MB-231/ATCC) | Growth Percent (MDA-MB-435) | Growth Percent (NCI-H23) | Growth Percent (NCI-H322M) | Growth Percent (NCI-H460) | Growth Percent (NCI-H522) | further results
1 | Cc1c(C(=O)NCCCC(=O)NO)sc2ncnc(Nc3ccc(NC(=O)Nc4cccc(C(F)(F)F)c4)cc3)c12 [Compound 12c, 1–(4-(6-((4-(hydroxyamino)-4-oxobutyl)carbamoyl)-5-methylthieno[2,3-d]pyrimidin-4-ylamino)phenyl)-3–(3-(trifluoromethyl)phenyl)urea] | 106.6% and 106.68% | 105.9% and 105.92% | 118.8% and 118.81% | 100.6% and 100.67% | 114.9% and 114.97% | 113.6% and 113.65% | 107.2% and 107.24% | 104.7% and 104.71% | 130.0% and 130.03% | 103.8% and 103.86% | 102.1% and 102.13% | 98.1% and 98.14% | 116.7% and 116.65% | 95.2% and 95.26% | 99.1% and 99.12% | 101.5% and 101.59% | 104.6% and 104.64% | 105.0% and 105.06% | 101.9% and 101.92% | 94.1% and 94.19% | Growth Percent (OVCAR-3): 117.8% and 117.86%; Growth Percent (OVCAR-5): 111.3% and 111.33%; Growth Percent (OVCAR-8): 105.9% and 105.93%; Growth Percent (PC-3): 111.1% and 111.12%; Growth Percent (RPMI-8226): 104.0% and 104.09%; Growth Percent (SF-268): 98.7% and 98.75%; Growth Percent (SF-295): 93.7% and 93.78%; Growth Percent (SF-539): 71.5% and 71.52%; inhibition at 10 µM (SF-539; Homo sapiens, CNS SF-539, 10 μM): 28.5%; Growth Percent (SK-MEL-28): 109.2% and 109.22%; Growth Percent (SK-OV-3): 113.9% and 113.94%; Growth Percent (SN12C): 104.6% and 104.65%; Growth Percent (SNB-19): 96.8% and 96.88%; Growth Percent (SR): 103.3% and 103.37%; Growth Percent (T-47D): 109.7% and 109.79%; Growth Percent (TK-10): 117.7% and 117.79%; Growth Percent (U251): 87.3% and 87.39%; Growth Percent (UACC-257): 107.0%
2 | COc1cccc(NC(=O)Nc2ccc(Nc3ncnc4sc(C(=O)NCCC(=O)NO)c(C)c34)cc2)c1 [Compound 11b, 1–(4-(6-((3-(hydroxyamino)-3-oxopropyl)carbamoyl)-5-methylthieno[2,3-d]pyrimidin-4-ylamino)phenyl)-3–(3-methoxyphenyl)urea] | 101.3% and 101.34% | 106.0% and 106.03% | 96.1% and 96.14% | 95.6% and 95.62% | 113.1% and 113.15% | 103.8% and 103.81% | 101.6% and 101.62% | 103.9% and 103.99% | 119.1% and 119.18% | 115.1% and 115.17% | 99.5% and 99.57% | 91.6% and 91.65% | 107.0% and 107.03% | 90.5% and 90.58% | 100.5% and 100.55% | 100.8% and 100.85% | 96.6% and 96.67% | 100.7% and 100.74% | 101.9% and 101.91% | 94.6% and 94.61% | Growth Percent (OVCAR-3): 108.9%; Growth Percent (OVCAR-5): 101.9% and 101.91%; Growth Percent (OVCAR-8): 99.2% and 99.26%; Growth Percent (PC-3): 102.0% and 102.03%; Growth Percent (RPMI-8226): 110.5%; Growth Percent (SF-268): 94.3% and 94.39%; Growth Percent (SF-295): 100.0% and 100.08%; Growth Percent (SF-539): 98.0% and 98.07%; Growth Percent (SK-MEL-28): 105.3%; Growth Percent (SK-OV-3): 123.7% and 123.78%; Growth Percent (SN12C): 105.1% and 105.11%; Growth Percent (SNB-19): 98.1%; Growth Percent (SR): 112.2% and 112.27%; Growth Percent (T-47D): 100.1%; Growth Percent (TK-10): 109.9% and 109.96%; Growth Percent (U251): 97.1% and 97.12%; Growth Percent (UACC-257): 99.1% and 99.15%
3 | Cc1c(C(=O)NCCC(=O)NO)sc2ncnc(Nc3ccc(Cl)cc3)c12 [Compound 19c, 4–(4-chlorophenylamino)-N-(3-(hydroxyamino)-3-oxopropyl)-5-methylthieno[2,3-d]pyrimidine-6-carboxamide] | 104.9% and 104.99% | 106.8% and 106.82% | 103.5% and 103.54% | 90.4% and 90.48% | 115.7% and 115.76% | 105.3% and 105.39% | 102.1% and 102.16% | 104.5% and 104.56% | 124.7% and 124.71% | 106.4% and 106.41% | 102.0% and 102.09% | 98.8% and 98.82% | 104.5% and 104.57% | 93.4% | 104.1% and 104.18% | 102.9% and 102.91% | 102.7% | 105.7% and 105.79% | 100.4% and 100.45% | 90.0% and 90.06% | Growth Percent (OVCAR-3): 110.3% and 110.31%; Growth Percent (OVCAR-5): 110.3% and 110.34%; Growth Percent (OVCAR-8): 104.1% and 104.13%; Growth Percent (PC-3): 110.4% and 110.47%; Growth Percent (RPMI-8226): 105.4% and 105.48%; Growth Percent (SF-268): 97.6% and 97.68%; Growth Percent (SF-295): 99.7% and 99.97%; Growth Percent (SF-539): 99.0%; Growth Percent (SK-MEL-28): 112.1%; Growth Percent (SK-OV-3): 120.6% and 120.62%; Growth Percent (SN12C): 101.7% and 101.77%; Growth Percent (SNB-19): 103.7% and 103.73%; Growth Percent (SR): 101.3% and 101.35%; Growth Percent (T-47D): 106.95%; Growth Percent (TK-10): 115.9% and 115.96%; Growth Percent (U251): 104.8% and 104.84%; Growth Percent (UACC-257): 115.4%
